Columns and labels:
[1] = molecular target: Recombinant human active heparanase (Homo sapiens (Human), UniProt Q9Y251); test: Heparanase inhibition assay (colorimetric, fondaparinux substrate, WST-1 detection); assay type: biochemical; conditions: for IC50: average ± SEM, direct comparison to OGT_2115, read-out: Average IC50 (μM ± SEM), heparanase enzyme inhibition
Method: Recombinant human active heparanase derived from Chinese hamster ovary cells was from R&D Systems. […] Following initiation of the reaction by addition of fondaparinux, the plate was sealed with adhesive film and incubated at 37° C. for 20-24 h. […] For the enzymatic assays, test compounds were dissolved and added to the assay at varying concentrations to calculate the level of inhibition.
Heparanase inhibition activity of various compounds of the invention was determined using standard methods.

[2] = test system: C57BL6J mice; test: Photo-oxidative damage of the retina, retinal function by electroretinography (ERG); conditions: intravitreal injection 1 μL of 200 μM, 5 days photo-oxidative damage
Excerpt: Significant trends in data points were ascertained using the one-way or two-way analysis of variance (ANOVA) to determine statistical significance (p<0.05) that is indicated by asterisks (*).
C57BL6J mice were born and raised in 12:12 hrs light:dark cycle of 5 lux in individually vented cages, with free access to food and water. Age-matched adult mice (8-10 weeks) were randomly assigned to light damage and dim-reared control (non-light damage) groups. Animals of the light damage group were continuously exposed to 100 k lux white LED light for 1, 3, 5 and 7 days. […] Dim-reared control animals were also pupil dilated twice each day, but were returned to dim cyclic light (12:12 hrs light:dark, 5 lux light).
During bright-light exposure, animals were housed in plastic boxes (two per box), with free access to food and water. The floors of the cages were coated with a reflective Perspex surface and illuminated by a 100-W 65000 k natural white LED (high CRI LED, Yuji, Beijing) mounted 18 cm above the plastic boxes. The LED light has an emission spectrum which more closely resembles daylight than halogen or incandescent bulbs. […] Animals were provided with bedding, food and water during the time course of light exposure, and their behaviour was monitored daily. […]

[3] = test system: db/db mice; test: Insulin content of pancreatic islets in db/db mice (anti-insulin staining, morphometric analysis); assay type: in vivo, mouse; conditions: 50 mg/kg daily IP
Method: FIG. 5. Insulin content in pancreas sections in db/db mice a model of Type 2 diabetes. Mice were treated daily with 50 mg/kg PI-88 IP from 4 weeks of age. Onset of clinical diabetes was determined by measuring urine glucose twice weekly with Multistix reagent strips and confirmed by measuring non-fasting blood glucose levels in tail vein blood using a MediSense glucometer with hyperglycemia defined as 2 consecutive blood glucose readings of 16 mmol/l or greater. Insulin was detected by anti-insulin antibody staining.
The db/db mouse has defective leptin signalling resulting from a point mutation in the leptin receptor gene. Plasma insulin levels become elevated very early in life (10-14 days of age), and the affected animals are obese by the time they are 3-4 weeks old. The animals are insulin resistant, hypertriglyceridemic, and have impaired glucose tolerance.
db/db mice were treated with saline or 50 mg/kg of PI-88 by daily intraperitoneal injection. At the cessation of treatment pancreatic islets were isolated and stained for insulin and the level of insulin expression assessed by quantitative morphometric analyses.

[4] = test system: db/db mice; test: Intra-islet heparan sulfate content in db/db mice (Alcian blue staining, morphometric analysis); assay type: in vivo, mouse; conditions: 50 mg/kg daily IP
Method: FIG. 6. Intra-islet HS content in pancreas sections in treated db/db mice. Mice were treated daily with 50 mg/kg PI-88 IP from 4 weeks of age. Onset of clinical diabetes was determined by measuring urine glucose twice weekly with Multistix reagent strips and confirmed by measuring non-fasting blood glucose levels in tail vein blood using a MediSense glucometer with hyperglycemia defined as 2 consecutive blood glucose readings of 16 mmol/l or greater. Islet HS was detected by Alcian blue staining.
db/db mice were treated with saline or 50 mg/kg of PI-88 daily by intraperitoneal injection. At the cessation of treatment pancreatic islets were isolated and stained with alcian blue to visualise heparan sulfate and the heparan sulfate content of the islets was assessed by quantitative morphometric analyses.

[5] = cited from earlier work

Recombinant human active heparanase, sequence (Q9Y251 158-543): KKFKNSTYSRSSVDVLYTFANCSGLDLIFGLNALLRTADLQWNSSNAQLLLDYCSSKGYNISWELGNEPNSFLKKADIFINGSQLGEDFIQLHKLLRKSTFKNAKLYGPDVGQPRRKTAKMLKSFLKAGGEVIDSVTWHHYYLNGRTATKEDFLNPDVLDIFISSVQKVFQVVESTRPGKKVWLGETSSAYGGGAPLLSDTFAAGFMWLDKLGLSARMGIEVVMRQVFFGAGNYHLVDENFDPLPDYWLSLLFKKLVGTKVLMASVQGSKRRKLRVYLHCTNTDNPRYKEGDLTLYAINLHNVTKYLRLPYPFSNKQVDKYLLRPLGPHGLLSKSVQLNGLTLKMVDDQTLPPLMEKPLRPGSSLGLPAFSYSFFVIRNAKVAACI
Recombinant human active heparanase, sequence (Q9Y251 36-109): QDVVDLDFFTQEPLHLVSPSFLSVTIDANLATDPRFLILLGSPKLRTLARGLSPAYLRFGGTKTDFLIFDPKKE

Compound: COc1cc2nc(NCCNC(=O)c3nnc(-c4cc5ccccc5[nH]4)o3)nc(N)c2cc1OC [BT2169]
- IC50 [1]: 4 ± 0.09 µM

Compound: COc1cc2nc(NCCNC(=O)c3nnc(-c4ccccc4)o3)nc(N)c2cc1OC.Cl [BT2172]
- ERG a-wave and b-wave responses versus control (PBS) [2]: higher a- and b-wave responses than the control (PBS) group
- retinal function (ERG) [2]: maintained retinal function

Compound: COc1cc2nc(N3CCN(C(=O)C4COc5ccccc5O4)CC3)nc(N)c2cc1OC (stereo not drawn) [doxazosin, reference compound]
- heparanase inhibition (in words) [1]: inhibits heparanase

Compound: COc1cc2nc(-c3cccc4cccnc34)nc(NCCc3ccccc3)c2cc1OC [BT2164]
- IC50 [1]: 3.13 ± 0.72 µM

Compound: PI-88
- expression of insulin in islets [3]: increased compared to the saline treated db/db mice and is near to the level of insulin expression in the wild-type mice
- islet heparan sulfate levels [4]: increased compared to the saline treated db/db mice and are near to the levels of heparan sulfate in the islets of wild-type mice
- half-life [5]: approximately 30 minutes

Compound: COc1cc2nc(-c3cccc4cccnc34)nc(NCCNC(=O)c3nnc(-c4ccccc4)o3)c2cc1OC [BT2187]
- IC50 [1]: 3.64 ± 0.62 µM

Reference: patent US11718609B2, “Heparanase inhibitors and use thereof” (Beta Therapeutics Pty Ltd, priority 2016, dated 2023)
